We go through three compounds from US20220274911A1, “ARYLPROPIONIC ACID DERIVATIVE, PHARMACEUTICAL COMPOSITION AND PREPARATION METHOD AND APPLICATION THEREOF” (NANJING HERON PHARMACEUTICAL SCIENCE AND TECHNOLOGY CO., …, priority 2020, published 2022).

The nature of series [1]: Metabolism of the compound in human plasma (hydrolysis to the active metabolite). The conditions noted are these: in vitro human plasma; for Remaining Amount of the Prodrug Compound (%): 37° C., 200 rpm, time point of the tabulated value not stated (samples at 0, 15, 30, 60 and 120 min). Format: in vitro ADME. Here is the method: (1) 40 mM pure acetonitrile stock solutions of Compound 1, Compound 7 and Compound a were prepared;
(2) the stock solution (25 μL) of Compound a was mixed with 1 mL of human plasma and vortexed for 30 s, a sample (200 μL) was added to 800 μL of acetonitrile to precipitate proteins and vortexed for 1 min, and then the reaction was stopped as a control of an active metabolite of loxoprofen; and 40 mM stock solutions of Compound 1 and Compound 7 were diluted 200 times as prodrug controls;
(4) the pure acetonitrile stock solution (100 μL) of each of Compound 1 and Compound 7 was mixed with 4 mL of human plasma, vortexed for 30 s, and oscillated at 200 rpm in an oscillating water bath heater with a constant temperature of 37° C.;
(5) samples (200 μL) were taken at different time points (0, 15, 30, 60 and 120 min) with three samples at each time point, added with 800 μL of acetonitrile to precipitate proteins and vortexed for 1 min, and then the reaction was stopped; and a blank plasma control was obtained in the same manner;
(6) the samples were centrifuged at 12000 rpm for 10 min at 4° C., the supernatant was taken and injected at a volume of 30 μL (through a filter membrane), and changes of a peak area were recorded;
(7) hydrolysis rates of Compound 1 and Compound 7 were observed and analyzed.

Series [2] in a line: Solubility of the active metabolite of loxoprofen. In kind it is physicochemical.
The nature of series [3]: Physicochemical stability of the active metabolite of loxoprofen. The following applies: high temperature, high humidity, cold white fluorescent lamp and ultraviolet lamp.

Take `CC(=O)OC(C)OC(=O)[C@@H](C)c1ccc(C[C@H]2CCC[C@@H]2O)cc1` (some centres unmarked) [Compound 7]: in series [1], the “transformation into the active metabolite” value is on record as “rapidly transformed into the active metabolite” and the “Remaining Amount of the Prodrug Compound (%)” value is recorded as 21.41% ± 0.49%. The metabolic rate result in series [1] (compared with Compound 1) is “slightly faster than that of Compound 1 without a significant difference”.

Turning to `C[C@H](C(=O)O)c1ccc(C[C@H]2CCC[C@@H]2O)cc1` [Compound a, (S)-2-(4-(((1R, 2S)-2-hydroxycyclopentyl)methyl)phenyl)propionic acid], the solubility result in series [2] (in a slightly alkaline aqueous solution) was “soluble”; in series [2] (in pure water), “low solubility”. In addition, in series [3], the physicochemical stability entry was “poor physicochemical stability”.

On to `CCOC(=O)OC(C)OC(=O)[C@@H](C)c1ccc(C[C@H]2CCC[C@@H]2O)cc1` (some centres unmarked) [Compound 1], for which, in series [1], the “transformation into the active metabolite” value is “rapidly transformed into the active metabolite” and the “Remaining Amount of the Prodrug Compound (%)” value is 35.41% ± 1.83%.
